Assay results from patent US6362166B1, “Antipicornaviral compounds and methods for their use and preparation” (Agouron Pharmaceuticals, Inc., priority 1996, dated 2002).
Where two headings read alike, the source gives them in different places.

Legend:
[1] = molecular target: T1, Recombinant Rhinovirus 3C protease (RVP) serotype-14 (Human rhinovirus 14, UniProt P03303); assay: Inhibition of Rhinovirus Protease (fluorescence resonance energy transfer assay), serotype 14; format: biochemical, human rhinovirus (HRV); details: for kinact/KI: pH 7.6, read-out: kobs/I
T1 construct: Recombinant Rhinovirus 3C proteases from serotypes 14, 16, 2 or 89; made in house
T1 sequence (P03303 1538-1719): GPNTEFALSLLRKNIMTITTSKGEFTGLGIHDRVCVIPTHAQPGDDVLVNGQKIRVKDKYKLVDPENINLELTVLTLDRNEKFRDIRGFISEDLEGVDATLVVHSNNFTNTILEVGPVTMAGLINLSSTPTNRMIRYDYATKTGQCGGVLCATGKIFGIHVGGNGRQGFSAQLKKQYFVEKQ

[2] = tested on: HRV-14; assay: Antirhinoviral HI-HeLa Cell Culture Assay (Cell Protection Assay, XTT dye reduction); format: cell-based, human rhinovirus (HRV) serotype-14; details: Rhinovirus B, HRV14, 48 h
In short: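 HI-HeLa cells infected with HRV-14 at m.o.i. 0.13 or mock-infected, then incubated with compounds for two days. Cell protection read by XTT/PMS formazan at 450/650 nm; therapeutic index = CC50/EC50.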

[3] = Cytotoxicity in mock-infected HI-HeLa cells (antirhinoviral assay, XTT); format: cell-based; details: human; mock-infected HI-HeLa cells; two days; XTT; read-out: CC50
[4] = HI-HeLa cells infected with HRV-14, m.o.i. 0.13, two days, XTT, read-out: EC50

| SMILES | Ki [1] | kinact/KI [1] | EC50 [2, 4] | CC50 at 2 days [3] | EC50 [2] |
| --- | --- | --- | --- | --- | --- |
| CCOC(=O)/C=C/[C@H](CCC(N)=O)NC(=O)[C@H](Cc1ccc(C#N)cc1)NC(=O)[C@H](CC(C)C)NC(=O)OCc1ccccc1 [Compound 132] | 10 µM | 10800 M⁻¹ s⁻¹ | 5.6 µM | > 320 µM | – |
| CC(C)C[C@H](NC(=O)OCc1ccccc1)C(=O)N[C@@H](Cc1ccccc1)C(=O)N[C@H](/C=C/C(=O)OC(C)C)CCC(N)=O [Compound 17, Isopropyl-3-(CBZ-L-Leu-L-Phe-L-Gln)-E-Propenoate] | 1.25 µM | 6100 M⁻¹ s⁻¹ | 1.8 µM | > 100 µM | – |
| CC(C)CC(NC(=O)OCc1ccccc1)C(=O)NC(Cc1ccccc1)C(=O)NC(C=C1CCCOC1=O)CCC(N)=O (centres unmarked) [Compound 130] | 0.03 to 0.04 µM | – | 15.8 µM | > 100 µM | – |
| CCOC(=O)/C=C/[C@H](CCC(N)=O)NC(=O)[C@H](Cc1ccccc1)NC(=O)[C@H](CC(C)C)NC(=O)SC [Compound 119] | 5 µM | 69800 M⁻¹ s⁻¹ | 1.1 µM | > 320 µM | – |
| CCOC(=O)/C=C/[C@H](COC(N)=O)NC(=O)[C@H](Cc1ccccc1)NC(=O)[C@H](CC(C)C)NC(=O)OCc1ccccc1 [Compound 56] | 15 µM | 5620 M⁻¹ s⁻¹ | 1.6 µM | > 320 µM | – |
| CC(C)C[C@H](NC(=O)OCc1ccccc1)C(=O)N[C@@H](Cc1ccccc1)C(=O)N[C@H](/C=C/C(=O)OC1CCCCC1)CCC(N)=O [Compound 25] | 5.5 µM | 3700 M⁻¹ s⁻¹ | 3.1 µM | > 100 µM | – |
| CC(C)C[C@H](NC(=O)OCc1ccccc1)C(=O)N[C@@H](Cc1ccccc1)C(=O)N[C@H](/C=C/C(=O)N1CCc2cc(S(=O)(=O)N(C)C)ccc21)CCC(N)=O [Compound 88] | > 30 µM | 8960 M⁻¹ s⁻¹ | 8.8 µM | > 160 µM | – |
| CON=C/C=C/[C@H](CCC(N)=O)NC(=O)[C@H](Cc1ccccc1)NC(=O)[C@H](CC(C)C)NC(=O)OCc1ccccc1 [Compound 83] | 8 µM | – | 100 µM | > 320 µM | – |
| CC(C)C[C@H](NC(=O)OCc1ccccc1)C(=O)N[C@@H](Cc1ccccc1)C(=O)N[C@H](/C=C/C(=O)N1CCc2cc(F)ccc21)CCC(N)=O [Compound 87] | 6 µM | 5430 M⁻¹ s⁻¹ | 10.6 µM | > 320 µM | – |
| CCOC(=O)/C=C/[C@H](CCC(N)=O)NC(=O)[C@H](Cc1cnc[nH]1)NC(=O)[C@H](CC(C)C)NC(=O)OCc1ccccc1 [Compound 112] | 13 µM | 6800 M⁻¹ s⁻¹ | – | > 320 µM | 27 µM |
| CC(C)C[C@H](NC(=O)OCc1ccccc1)C(=O)N[C@@H](Cc1ccccc1)C(=O)N[C@H](/C=C/C(=O)N1CCc2cccc(Cl)c21)CCC(N)=O [Compound 91] | 10 µM | 5430 M⁻¹ s⁻¹ | 56 µM | > 320 µM | – |
| CC(C)C[C@H](NC(=O)OCc1ccccc1)C(=O)N[C@@H](Cc1ccccc1)C(=O)N[C@H](/C=C/c1nccn1C)CCC(N)=O [Compound 65] | 2.9 µM | – | 158 µM | > 320 µM | – |
| CCOC(=O)/C=C/[C@H](CCC(N)=O)NC(=O)[C@H](Cc1ccccc1)NC(=O)[C@@H](NC(=O)OCc1ccccc1)C(C)(C)C [Compound 151] | > 4.8 µM | 39800 M⁻¹ s⁻¹ | 0.32 µM | 178 µM | – |
| CCOC(=O)/C=C/[C@H](CCC(=O)NC(c1ccccc1)(c1ccccc1)c1ccccc1)NC(=O)[C@H](Cc1ccccc1)NC(=O)[C@H](CC(C)C)NC(=O)OCc1ccccc1 [Compound 2, Ethyl-3-[CBZ-L-Leu-L-Phe-L-(Tr-Gln)]-E-Propenoate] | 6.6 µM | – | 100 µM | > 320 µM | – |
| CC(C)CC(NC(=O)OCc1ccccc1)C(=O)NC(Cc1ccccc1)C(=O)NC(C=Cc1ccccc1C#N)CCC(N)=O (centres unmarked) [Compound 145] | 10 to 20 µM | – | > 320 µM | > 320 µM | – |
| COc1ccc2c(c1)CCN2C(=O)C=CC(CCC(N)=O)NC(=O)C(Cc1ccccc1)NC(=O)C(CC(C)C)NC(=O)OCc1ccccc1 (centres unmarked) [Compound 93] | – | 3440 M⁻¹ s⁻¹ | > 320 µM | > 320 µM | – |
| CCOC(=O)/C=C/[C@H](CCC(N)=O)NC(=O)[C@H](Cc1ccccc1)NC(=O)[C@H](CC(C)C)NC(=O)CO [Compound 111] | 5 µM | 2060 M⁻¹ s⁻¹ | 29.5 µM | > 320 µM | – |
| CCOC(=O)/C=C/[C@H](CCC(N)=O)NC(=O)[C@H](Cc1ccccc1)NC(=O)[C@H](CC(C)C)NC(=O)CCO [Compound 115] | 11 µM | 4480 M⁻¹ s⁻¹ | 19 µM | > 320 µM | – |
| CCOC(=O)/C=C/[C@H](CCC(N)=O)NC(=O)[C@H](Cc1ccccc1)NC(=O)[C@H](CC(C)C)NC(=O)CSc1ccccn1 [Compound 118] | 39 µM | 1450 M⁻¹ s⁻¹ | 17.8 µM | > 320 µM | – |
| CC(C)C[C@H](NC(=O)OCc1ccccc1)C(=O)N[C@@H](Cc1ccccc1)C(=O)N[C@H](/C=C/CCl)CCC(N)=O [Compound 74] | 2.4 µM | – | 10 µM | 250 µM | – |
| CCOC(=O)/C=C/[C@H](CCC(N)=O)NC(=O)[C@H](Cc1ccccc1)NC(=O)[C@@H](NC(=O)OCc1ccccc1)C(C)O (some centres unmarked) [Compound 152] | 3.2 µM | 38900 M⁻¹ s⁻¹ | 1.78 µM | > 320 µM | – |
| CCOC(=O)/C=C/C(CCC(N)=O)NC(=O)C(Cc1ccccc1)NC(=O)C(CC(C)C)NC(=O)c1ccc2ccccc2c1 (centres unmarked) [Compound 44] | 12.6 µM | 21000 M⁻¹ s⁻¹ | 1 µM | > 320 µM | – |
| CC(C)C[C@H](NC(=O)OCc1ccccc1)C(=O)N[C@@H](Cc1ccccc1)C(=O)N[C@H](/C=C/C(=O)N1CCc2cc(Br)ccc21)CCC(N)=O [Compound 94] | 1.5 µM | 5800 M⁻¹ s⁻¹ | 46.8 µM | > 320 µM | – |
| CCOC(=O)/C=C/[C@H](CCC(N)=O)NC(=O)[C@H](Cc1ccccc1)NC(=O)CNC(=O)OCc1ccccc1 [Compound 102] | 12 µM | 3840 M⁻¹ s⁻¹ | 5.6 µM | > 320 µM | – |
| CC(C)C[C@H](NC(=O)OCc1ccccc1)C(=O)N[C@@H](Cc1ccccc1)C(=O)N[C@H](/C=C/C(=O)OCC(C)(C)C)CCC(N)=O [Compound 163] | 3.6 µM | 9800 M⁻¹ s⁻¹ | 0.5 µM | > 100 µM | – |
| CC(C)C[C@H](NC(=O)OCc1ccccc1)C(=O)N[C@@H](Cc1ccccc1)C(=O)N[C@H](/C=C/C(=O)N1CCc2cc([N+](=O)[O-])ccc21)CCC(N)=O [Compound 86] | 4 µM | 12000 M⁻¹ s⁻¹ | 17 µM | > 320 µM | – |
| CC(C)C[C@H](NC(=O)OCc1ccccc1)C(=O)N[C@@H](Cc1ccccc1)C(=O)N[C@H](/C=C/C(=O)N(C)O)CCC(N)=O [Compound 138] | 20 µM | 1770 M⁻¹ s⁻¹ | > 41.7 µM | 41.7 µM | – |
| CC(C)C[C@H](NC(=O)OCc1ccccc1)C(=O)N[C@@H](Cc1ccccc1)C(=O)N[C@H](/C=C\CCl)CCC(N)=O [Compound 78] | 7 µM | – | 10 µM | 79.4 µM | – |
